Measured values taken from patent US7498349B2, “Biaryl compounds having anti-infective activity” (Genesoft Pharmaceuticals, Inc., priority 2002, dated 2009).

Columns and labels:
S. aureus ATCC 27660 = test: MIC, NCCLS broth microdilution assay; format: cell-based, Staphylococcus aureus; conditions: S. aureus ATCC 27660, methicillin resistant strain (MRSA)
Source text: In vitro biological activity data were collected for a variety of microorganisms, including Bacillus cereus (ATCC 11778), Staphylococcus aureus (ATCC 33591; ATCC 27660, a methicillin resistant strain (MRSA); ATCC 13709, a methicillin sensitive strain (MSSA)), Escherichia coli (ATCC 25922), Enterococcus faecalis (ATCC 29212), Streptococcus pneumoniae (ATCC 49619; ATCC 51422, a penicillin resistant strain (PRSP)), Enterococcus faecium (ATCC 51559, a vancomycin resistant strain (VRE)), and Staphylococcus epidermidis (ATCC 12228).
The minimal inhibition concentration (MIC) of these compounds was determined using the National Committee for Clinical Laboratory Standards (NCCLS) broth microdilution assay in microtiter plates, as set forth in: (1) the guidelines of the National Committee for Clinical Laboratory Standards (NCCLS) Document M7-A4 (NCCLS, 1997); (2) the guidelines of the National Committee for Clinical Laboratory Standards (NCCLS) Document M11-A4 (NCCLS, 1997); and (3) the guidelines and reference method of the National Committee for Clinical Laboratory Standards (NCCLS) Document M27 -T (NCCLS, 1995).

S. aureus ATCC 13709 = test: MIC, NCCLS broth microdilution assay; format: cell-based, Staphylococcus aureus; conditions: S. aureus ATCC 13709, methicillin sensitive strain (MSSA)
E. faecalis ATCC 29212 = test: MIC, NCCLS broth microdilution assay; format: cell-based, Enterococcus faecalis; conditions: E. faecalis ATCC 29212
S. pneumoniae ATCC 49619 = test: MIC, NCCLS broth microdilution assay; format: cell-based, Streptococcus pneumoniae; conditions: S. pneumoniae ATCC 49619
B. cereus ATCC 11778 = test: MIC, NCCLS broth microdilution assay; format: cell-based, Bacillus cereus; conditions: B. cereus ATCC 11778
C. albicans ATCC 38247 = test: MIC, antifungal assay; format: cell-based, Candida albicans; conditions: C. albicans ATCC 38247
E. coli ATCC 25922 = test: MIC, NCCLS broth microdilution assay; format: cell-based, Escherichia coli; conditions: E. coli ATCC 25922

Compound	Minimum Inhibitory Concentration (MIC) (S. aureus ATCC 27660)	Minimum Inhibitory Concentration (MIC) (S. aureus ATCC 13709)	Minimum Inhibitory Concentration (MIC) (E. faecalis ATCC 29212)	Minimum Inhibitory Concentration (MIC) (S. pneumoniae ATCC 49619)	Minimum Inhibitory Concentration (MIC) (B. cereus ATCC 11778)	Minimum Inhibitory Concentration (MIC) (C. albicans ATCC 38247)	Minimum Inhibitory Concentration (MIC) (E. coli ATCC 25922)
NCCN1CCN(c2ncccc2C(=O)Nc2ccc(-c3cc4ccccc4o3)cc2)CC1 [Compound A-17]	+ (12 ≦ MIC ≦ 32)	++ (4 < MIC < 12)	+ (12 ≦ MIC ≦ 32)	+ (12 ≦ MIC ≦ 32)	+ (12 ≦ MIC ≦ 32)	+ (12 ≦ MIC ≦ 32)	>32 µg/mL
O=C(Nc1ccc(-c2cc3ccccc3o2)cc1)c1cccnc1NCCN1CCNCC1 [Compound A-10]	–	–	+ (12 ≦ MIC ≦ 32)	+ (12 ≦ MIC ≦ 32)	+ (12 ≦ MIC ≦ 32)	>32 µg/mL	>32 µg/mL
O=C(Nc1ccc(-c2cc3ccccc3o2)cc1)c1cccnc1NCCN1CCCC1 [Compound A-15]	+++ (MIC ≦ 4)	+++ (MIC ≦ 4)	+++ (MIC ≦ 4)	+ (12 ≦ MIC ≦ 32)	++ (4 < MIC < 12)	+ (12 ≦ MIC ≦ 32)	>32 µg/mL
O=C(Nc1ccc(-c2cc3ccccc3o2)cc1)c1cccnc1NCCN1CCSCC1 [Compound A-14]	>32 µg/mL	>32 µg/mL	>32 µg/mL	>32 µg/mL	>32 µg/mL	>32 µg/mL	>32 µg/mL
Cc1ccc2nc(-c3ccc(NC(=O)c4nsc(NCCCN(C)CCCN)c4Cl)cc3)sc2c1 [Compound A-51]	+++ (MIC ≦ 4)	+++ (MIC ≦ 4)	+++ (MIC ≦ 4)	+++ (MIC ≦ 4)	+++ (MIC ≦ 4)	+++ (MIC ≦ 4)	>32 µg/mL
CCN(CC)CCCNc1snc(C(=O)Nc2ccc(-c3cc4ccccc4o3)cc2)c1Cl [Compound A-5]	+++ (MIC ≦ 4)	+++ (MIC ≦ 4)	+++ (MIC ≦ 4)	>32 µg/mL	++ (4 < MIC < 12)	++ (4 < MIC < 12)	>32 µg/mL
NCCOCCOCCNc1snc(C(=O)Nc2ccc(-c3cc4ccccc4o3)cc2)c1Cl [Compound A-6]	+++ (MIC ≦ 4)	+++ (MIC ≦ 4)	+++ (MIC ≦ 4)	>32 µg/mL	>32 µg/mL	++ (4 < MIC < 12)	>32 µg/mL
O=C(Nc1ccc(-c2cc3ccccc3o2)cc1)c1cccnc1NCCN1CCCCC1 [Compound A-13]	+++ (MIC ≦ 4)	+++ (MIC ≦ 4)	+++ (MIC ≦ 4)	+ (12 ≦ MIC ≦ 32)	+++ (MIC ≦ 4)	+ (12 ≦ MIC ≦ 32)	>32 µg/mL
